From patent publication US20060127967A1, “In vitro test for studying compound predicting pharmacologic and/or harmacokinetic and/or pharmacodynamic parameters of a compound” (priority 2002, published 2006)
Structures can show the parent of a compound that is named as a salt.

How the values were obtained:
Tetrahymena thermophila = Tetrahymena thermophila cell area, computerized morphometric/image analysis bioassay; format: cell-based; details: 6 hours exposure, various concentrations, at least 100 cells per sample
Experimental: Tetrahymena thermophila was grown axenically at 34 ?C in proteosepeptone yeast salts (PPYS) complex medium. Test cultures were prepared by inoculating the protozoa from a stock culture into PPYS to produce initial culture of ˜5000 cell/ml. The cell cultures were then grown for 24 hours at 34 ?C. In the beginning of the experiment the culture was transferred into 3 ml test tubes and exposed to the various concentrations of the tested material. Samples were withdrawn 6 hours following the exposure to the tested material. The samples fixed with formaldehyde solution were placed on the hemocytometer, observed under microscope and the area of tetrahymena was evaluated by computerized morphometric system/image analysis program. For each sample at least 100 cells were evaluated.

[1] = Permeation through Integra bi-layer membrane and human skin in Valia-Chien diffusion cells; format: in vitro ADME; details: aqueous solution pH 7.2, receiver Tris buffer pH 7.2, 8 hours, permeation area 0.64 cm^2, HCl
Experimental: Permeation studies with aqueous solution of Propranolol HCl (pH 7.2) through Integra and human skin were carried out in Valia-Chien diffusion cells. The effective permeation area was 0.64 cm^2. The receiver compartment contained Tris buffer (pH 7.2) and the experiment lasted for 8 hours. The samples were withdrawn at 0, 1, 2, 4, 6 and 8 hours and the quantity of propranolol HCl permeated through the membrane was analyzed by validated HPLC method.

permeation constant (Kp) through Integra as compared to human skin [1] | permeation constant (Kp) through Integra as compared to human skin ([1]; listed as propranolol) | Compound | change in Tetrahymena thermophila cell area with increasing drug concentration in the medium (Tetrahymena thermophila)
 |  | O=C([O-])c1ccccc1O.[Na+] [sodium salicylate] | decrease in cell area
 |  | C=CCc1ccccc1OCC(O)CNC(C)C (stereo not shown) [Alprenolol hydrochloride] | decrease in the cell area
close similarity | similar | CC(C)NCC(O)COc1cccc2ccccc12 (stereo not shown) [Propranolol HCl] | 
